Measured values taken from patent US20240415914A1, “Water Dispersible Cannabinoid Compositions” (priority 2021, published 2024).
Where two headings read alike, the source gives them in different places.

Assays:
[1] = type: physicochemical; settings: stored at room temperature (21-25° C.)
Method: At each time period, 0.05 g of powder was dissolved in 10 ml-15 of ethanol, diluted to fall within the analytical range, and injected into the LCMSMS for analysis.

[2] = Stability of cannabinoid and Vitamin E components of Beverage 2 (AB Red) stored at 8° C. and 21-25° C., LCMSMS over 570 days
Method: The LCMSMS was calibrated for 0-50 ng/ml cannabinoids with the same resin material used in the preparation of the concentrates. At each time period, 100 μml of beverage was diluted with 10 ml of methanol and injected into the LCMSMS for analysis.

CCCCCc1cc2c(c(O)c1C(=O)O)[C@@H]1C=C(C)CC[C@H]1C(C)(C)O2 [D9 THCA, delta-9-tetrahydrocannabinolic acid]
0.157 mg/g powder: Stability in Powder Concentrate (content by LCMSMS) ([1]; day 16)
1.30 µg/mL: Stability of Cannabinoids in AB Red ([2]; 8° C., 120 days) | Stability of Cannabinoids in AB Red ([2]; 8° C., 180 days) | Stability of Cannabinoids in AB Red ([2]; 8° C., 300 days) | Stability of Cannabinoids in AB Red ([2]; 21-25° C., 2 days) | Stability of Cannabinoids in AB Red ([2]; 21-25° C., 15 days) | Stability of Cannabinoids in AB Red ([2]; 21-25° C., 24 days) | Stability of Cannabinoids in AB Red ([2]; 21-25° C., 180 days)
1.28 µg/mL: Stability of Cannabinoids in AB Red ([2]; 8° C., 480 days) | Stability of Cannabinoids in AB Red ([2]; 21-25° C., 60 days) | Stability of Cannabinoids in AB Red ([2]; 21-25° C., 150 days) | Stability of Cannabinoids in AB Red ([2]; 21-25° C., 330 days)
1.34 µg/mL: Stability of Cannabinoids in AB Red ([2]; 8° C., 1 days) | Stability of Cannabinoids in AB Red ([2]; 8° C., 2 days) | Stability of Cannabinoids in AB Red ([2]; 8° C., 17 days) | Stability of Cannabinoids in AB Red ([2]; 8° C., 22 days) | Stability of Cannabinoids in AB Red ([2]; 8° C., 25 days) | Stability of Cannabinoids in AB Red ([2]; 8° C., 90 days) | Stability of Cannabinoids in AB Red ([2]; 8° C., 150 days) | Stability of Cannabinoids in AB Red ([2]; 8° C., 330 days) | Stability of Cannabinoids in AB Red ([2]; 21-25° C., 1 days) | Stability of Cannabinoids in AB Red ([2]; 21-25° C., 22 days) | Stability of Cannabinoids in AB Red ([2]; 21-25° C., 30 days) | Stability of Cannabinoids in AB Red ([2]; 21-25° C., 90 days) | Stability of Cannabinoids in AB Red ([2]; 21-25° C., 120 days)
0.152 mg/g powder: Stability in Powder Concentrate (content by LCMSMS) ([1]; day 12) | Stability in Powder Concentrate (content by LCMSMS) ([1]; day 29)
1.35 µg/mL: Stability of Cannabinoids in AB Red ([2]; 8° C., 0 days) | Stability of Cannabinoids in AB Red ([2]; 8° C., 3 days) | Stability of Cannabinoids in AB Red ([2]; 8° C., 8 days) | Stability of Cannabinoids in AB Red ([2]; 8° C., 10 days) | Stability of Cannabinoids in AB Red ([2]; 8° C., 11 days) | Stability of Cannabinoids in AB Red ([2]; 8° C., 18 days) | Stability of Cannabinoids in AB Red ([2]; 8° C., 29 days) | Stability of Cannabinoids in AB Red ([2]; 21-25° C., 0 days) | Stability of Cannabinoids in AB Red ([2]; 21-25° C., 9 days) | Stability of Cannabinoids in AB Red ([2]; 21-25° C., 17 days) | Stability of Cannabinoids in AB Red ([2]; 21-25° C., 25 days)
1.27 µg/mL: Stability of Cannabinoids in AB Red ([2]; 21-25° C., 270 days) | Stability of Cannabinoids in AB Red ([2]; 21-25° C., 300 days) | Stability of Cannabinoids in AB Red ([2]; 21-25° C., 510 days)
1.32 µg/mL: Stability of Cannabinoids in AB Red ([2]; 8° C., 12 days) | Stability of Cannabinoids in AB Red ([2]; 8° C., 19 days) | Stability of Cannabinoids in AB Red ([2]; 8° C., 60 days) | Stability of Cannabinoids in AB Red ([2]; 8° C., 240 days) | Stability of Cannabinoids in AB Red ([2]; 21-25° C., 3 days) | Stability of Cannabinoids in AB Red ([2]; 21-25° C., 26 days)
1.24 µg/mL: Stability of Cannabinoids in AB Red ([2]; 8° C., 570 days) | Stability of Cannabinoids in AB Red ([2]; 21-25° C., 570 days)
0.148 mg/g powder: Stability in Powder Concentrate (content by LCMSMS) ([1]; day 10) | Stability in Powder Concentrate (content by LCMSMS) ([1]; day 240) | Stability in Powder Concentrate (content by LCMSMS) ([1]; day 270) | Stability in Powder Concentrate (content by LCMSMS) ([1]; day 570)
0.145 mg/g powder: Stability in Powder Concentrate (content by LCMSMS) ([1]; day 11)
0.154 mg/g powder: Stability in Powder Concentrate (content by LCMSMS) ([1]; day 180) | Stability in Powder Concentrate (content by LCMSMS) ([1]; day 420) | Stability in Powder Concentrate (content by LCMSMS) ([1]; day 510) | Stability in Powder Concentrate (content by LCMSMS) ([1]; day 540)
1.25 µg/mL: Stability of Cannabinoids in AB Red ([2]; 8° C., 510 days)
0.146 mg/g powder: Stability in Powder Concentrate (content by LCMSMS) ([1]; day 5) | Stability in Powder Concentrate (content by LCMSMS) ([1]; day 19) | Stability in Powder Concentrate (content by LCMSMS) ([1]; day 60)
0.149 mg/g powder: Stability in Powder Concentrate (content by LCMSMS) ([1]; day 18) | Stability in Powder Concentrate (content by LCMSMS) ([1]; day 480)
1.31 µg/mL: Stability of Cannabinoids in AB Red ([2]; 8° C., 16 days) | Stability of Cannabinoids in AB Red ([2]; 8° C., 30 days) | Stability of Cannabinoids in AB Red ([2]; 8° C., 450 days) | Stability of Cannabinoids in AB Red ([2]; 21-25° C., 19 days) | Stability of Cannabinoids in AB Red ([2]; 21-25° C., 240 days) | Stability of Cannabinoids in AB Red ([2]; 21-25° C., 450 days)
0.155 mg/g powder: Stability in Powder Concentrate (content by LCMSMS) ([1]; day 360) | Stability in Powder Concentrate (content by LCMSMS) ([1]; day 450)
1.33 µg/mL: Stability of Cannabinoids in AB Red ([2]; 8° C., 15 days) | Stability of Cannabinoids in AB Red ([2]; 8° C., 23 days) | Stability of Cannabinoids in AB Red ([2]; 8° C., 24 days) | Stability of Cannabinoids in AB Red ([2]; 8° C., 26 days) | Stability of Cannabinoids in AB Red ([2]; 8° C., 210 days) | Stability of Cannabinoids in AB Red ([2]; 8° C., 270 days) | Stability of Cannabinoids in AB Red ([2]; 21-25° C., 10 days) | Stability of Cannabinoids in AB Red ([2]; 21-25° C., 11 days) | Stability of Cannabinoids in AB Red ([2]; 21-25° C., 12 days) | Stability of Cannabinoids in AB Red ([2]; 21-25° C., 29 days) | Stability of Cannabinoids in AB Red ([2]; 21-25° C., 210 days)
0.153 mg/g powder: Stability in Powder Concentrate (content by LCMSMS) ([1]; day 150) | Stability in Powder Concentrate (content by LCMSMS) ([1]; day 390)
0.151 mg/g powder: Stability in Powder Concentrate (content by LCMSMS) ([1]; day 9) | Stability in Powder Concentrate (content by LCMSMS) ([1]; day 15) | Stability in Powder Concentrate (content by LCMSMS) ([1]; day 30) | Stability in Powder Concentrate (content by LCMSMS) ([1]; day 210)
0.156 mg/g powder: Stability in Powder Concentrate (content by LCMSMS) ([1]; day 8) | Stability in Powder Concentrate (content by LCMSMS) ([1]; day 17) | Stability in Powder Concentrate (content by LCMSMS) ([1]; day 300) | Stability in Powder Concentrate (content by LCMSMS) ([1]; day 330)
1.26 µg/mL: Stability of Cannabinoids in AB Red ([2]; 8° C., 540 days) | Stability of Cannabinoids in AB Red ([2]; 21-25° C., 390 days) | Stability of Cannabinoids in AB Red ([2]; 21-25° C., 420 days)
0.147 mg/g powder: Stability in Powder Concentrate (content by LCMSMS) ([1]; day 2) | Stability in Powder Concentrate (content by LCMSMS) ([1]; day 23) | Stability in Powder Concentrate (content by LCMSMS) ([1]; day 90) | Stability in Powder Concentrate (content by LCMSMS) ([1]; day 120)
1.29 µg/mL: Stability of Cannabinoids in AB Red ([2]; 8° C., 390 days) | Stability of Cannabinoids in AB Red ([2]; 8° C., 420 days) | Stability of Cannabinoids in AB Red ([2]; 21-25° C., 480 days) | Stability of Cannabinoids in AB Red ([2]; 21-25° C., 540 days)
0.150 mg/g powder: Stability in Powder Concentrate (content by LCMSMS) ([1]; day 0) | Stability in Powder Concentrate (content by LCMSMS) ([1]; day 1) | Stability in Powder Concentrate (content by LCMSMS) ([1]; day 3) | Stability in Powder Concentrate (content by LCMSMS) ([1]; day 22) | Stability in Powder Concentrate (content by LCMSMS) ([1]; day 24) | Stability in Powder Concentrate (content by LCMSMS) ([1]; day 25) | Stability in Powder Concentrate (content by LCMSMS) ([1]; day 26)
1.36 µg/mL: Stability of Cannabinoids in AB Red ([2]; 8° C., 5 days) | Stability of Cannabinoids in AB Red ([2]; 8° C., 9 days) | Stability of Cannabinoids in AB Red ([2]; 21-25° C., 5 days) | Stability of Cannabinoids in AB Red ([2]; 21-25° C., 8 days) | Stability of Cannabinoids in AB Red ([2]; 21-25° C., 16 days) | Stability of Cannabinoids in AB Red ([2]; 21-25° C., 18 days) | Stability of Cannabinoids in AB Red ([2]; 21-25° C., 23 days)
